# Measurements published in patent US12686673B2 (Blueprint Medicines Corporation, priority 2020, dated 2026).
# Where a name gives a salt, the structure may show the parent alone.
# Experiments:
# Format in all cases: cell-based
# [1] = target: EGFR(D770_N771insSVD) expressing Ba/F3 stable cell line (Homo sapiens, UniProt P00533, DUP768-770, cells depend on it); experiment: Cellular proliferation (Alamar Blue) assay, EGFR D770_N771insSVD Ba/F3; details: 72 hr, read-out: D770 IC50
# Summary of the method: (§1)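 Proliferation of mutant-dependent Ba/F3 lines is measured by Alamar Blue reduction over 3 hours, following a 72 hr incubation with test compound spanning 10-0.0005 μM final in threefold dilutions. Cells go in at 15,000 per well in RPMI containing 10% FBS the day before dosing.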
# [2] = target: EGFR (H773insNPH) expressing Ba/F3 stable cell line (Homo sapiens, UniProt P00533, DUP771-773, cells depend on it); experiment: Cellular proliferation (Alamar Blue) assay, EGFR H773insNPH Ba/F3; details: 72 hr, read-out: NPH IC50
# Summary of the method: as §1
# [3] = tested on: A431 cells; experiment: Cellular proliferation (Alamar Blue) assay, A431; details: Homo sapiens, A-431; A431 cells, Alamar Blue, 72 hr; read-out: A431 IC50
# [4] = target: EGFR (A767_dupASV) expressing Ba/F3 stable cell line (Homo sapiens, UniProt P00533, DUP767-769, cells depend on it); experiment: Cellular proliferation (Alamar Blue) assay, EGFR A767_dupASV Ba/F3; details: 72 hr, read-out: A767 IC50
# Summary of the method: as §1
# [5] = target: HER2 (A775_G776insYVMA) expressing Ba/F3 stable cell line (Homo sapiens, UniProt P04626, DUP772-775, cells depend on it); experiment: Cellular proliferation (Alamar Blue) assay, HER2 A775_G776insYVMA Ba/F3; details: 72 hr, read-out: YVMA IC50
# Summary of the method: as §1
# EGFR (A767_dupASV) expressing Ba/F3 stable cell line, sequence (P00533 with tags, fused parts or gaps DUP767-769): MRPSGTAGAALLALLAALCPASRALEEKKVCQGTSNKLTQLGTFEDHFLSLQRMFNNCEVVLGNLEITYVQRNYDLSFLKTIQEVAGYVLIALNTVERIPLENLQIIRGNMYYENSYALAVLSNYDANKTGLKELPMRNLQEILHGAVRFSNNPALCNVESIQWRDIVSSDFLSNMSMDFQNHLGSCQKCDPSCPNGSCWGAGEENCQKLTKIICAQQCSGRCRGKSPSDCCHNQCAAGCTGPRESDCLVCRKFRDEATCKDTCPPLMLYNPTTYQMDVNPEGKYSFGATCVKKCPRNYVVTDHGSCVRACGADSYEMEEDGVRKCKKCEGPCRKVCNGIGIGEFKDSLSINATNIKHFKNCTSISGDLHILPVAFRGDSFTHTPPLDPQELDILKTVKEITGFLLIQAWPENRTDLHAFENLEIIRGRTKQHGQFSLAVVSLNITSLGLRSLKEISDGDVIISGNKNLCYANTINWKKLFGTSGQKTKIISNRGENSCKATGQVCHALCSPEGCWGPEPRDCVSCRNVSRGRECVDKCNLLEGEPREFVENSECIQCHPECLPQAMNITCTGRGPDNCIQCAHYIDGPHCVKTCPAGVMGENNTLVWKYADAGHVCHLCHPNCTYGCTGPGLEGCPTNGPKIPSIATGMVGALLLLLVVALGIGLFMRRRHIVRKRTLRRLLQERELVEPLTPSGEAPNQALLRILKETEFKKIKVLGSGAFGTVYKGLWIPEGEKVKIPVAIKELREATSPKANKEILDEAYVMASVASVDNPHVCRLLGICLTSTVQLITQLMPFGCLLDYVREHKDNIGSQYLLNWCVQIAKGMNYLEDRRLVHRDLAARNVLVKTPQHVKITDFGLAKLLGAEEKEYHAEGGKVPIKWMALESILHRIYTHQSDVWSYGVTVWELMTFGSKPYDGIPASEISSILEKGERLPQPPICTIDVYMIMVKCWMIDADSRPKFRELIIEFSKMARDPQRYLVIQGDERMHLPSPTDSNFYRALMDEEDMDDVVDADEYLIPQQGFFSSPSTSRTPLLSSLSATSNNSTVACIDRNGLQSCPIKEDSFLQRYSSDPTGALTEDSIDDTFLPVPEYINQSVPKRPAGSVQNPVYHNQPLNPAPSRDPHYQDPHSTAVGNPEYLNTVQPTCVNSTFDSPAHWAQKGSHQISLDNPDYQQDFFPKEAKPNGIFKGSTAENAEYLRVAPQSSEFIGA
# HER2 (A775_G776insYVMA) expressing Ba/F3 stable cell line, sequence (P04626 with tags, fused parts or gaps DUP772-775): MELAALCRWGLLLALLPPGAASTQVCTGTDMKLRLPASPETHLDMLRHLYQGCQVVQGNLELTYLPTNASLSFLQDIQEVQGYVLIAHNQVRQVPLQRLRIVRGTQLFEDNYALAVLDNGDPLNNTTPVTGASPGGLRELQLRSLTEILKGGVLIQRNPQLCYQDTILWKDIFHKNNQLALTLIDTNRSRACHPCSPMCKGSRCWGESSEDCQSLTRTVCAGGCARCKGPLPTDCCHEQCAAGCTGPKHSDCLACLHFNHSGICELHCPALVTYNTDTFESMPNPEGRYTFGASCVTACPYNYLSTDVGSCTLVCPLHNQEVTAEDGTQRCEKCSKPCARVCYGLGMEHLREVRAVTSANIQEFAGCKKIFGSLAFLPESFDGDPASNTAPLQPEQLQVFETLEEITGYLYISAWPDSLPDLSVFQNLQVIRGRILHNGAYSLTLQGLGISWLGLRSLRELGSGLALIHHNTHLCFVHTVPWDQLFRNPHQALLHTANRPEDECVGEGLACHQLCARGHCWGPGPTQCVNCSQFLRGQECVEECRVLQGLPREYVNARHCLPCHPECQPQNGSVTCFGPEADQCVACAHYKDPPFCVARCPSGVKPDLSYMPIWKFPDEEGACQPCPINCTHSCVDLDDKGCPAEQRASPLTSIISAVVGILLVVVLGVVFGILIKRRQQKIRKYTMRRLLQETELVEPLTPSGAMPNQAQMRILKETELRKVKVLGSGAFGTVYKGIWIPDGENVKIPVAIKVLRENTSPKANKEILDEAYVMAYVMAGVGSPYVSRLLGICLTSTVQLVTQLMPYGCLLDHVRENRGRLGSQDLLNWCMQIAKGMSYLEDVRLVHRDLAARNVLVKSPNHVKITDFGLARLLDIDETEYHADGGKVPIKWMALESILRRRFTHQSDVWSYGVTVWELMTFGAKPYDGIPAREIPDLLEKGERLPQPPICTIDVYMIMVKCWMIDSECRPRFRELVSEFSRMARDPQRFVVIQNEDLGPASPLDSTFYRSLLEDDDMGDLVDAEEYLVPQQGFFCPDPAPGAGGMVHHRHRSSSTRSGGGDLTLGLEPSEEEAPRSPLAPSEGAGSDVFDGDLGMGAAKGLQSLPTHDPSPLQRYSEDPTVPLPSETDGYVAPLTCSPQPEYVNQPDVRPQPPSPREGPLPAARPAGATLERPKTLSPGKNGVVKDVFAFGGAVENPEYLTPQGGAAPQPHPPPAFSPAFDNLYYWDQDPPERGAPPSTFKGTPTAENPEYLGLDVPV
# EGFR (H773insNPH) expressing Ba/F3 stable cell line, sequence (P00533 with tags, fused parts or gaps DUP771-773): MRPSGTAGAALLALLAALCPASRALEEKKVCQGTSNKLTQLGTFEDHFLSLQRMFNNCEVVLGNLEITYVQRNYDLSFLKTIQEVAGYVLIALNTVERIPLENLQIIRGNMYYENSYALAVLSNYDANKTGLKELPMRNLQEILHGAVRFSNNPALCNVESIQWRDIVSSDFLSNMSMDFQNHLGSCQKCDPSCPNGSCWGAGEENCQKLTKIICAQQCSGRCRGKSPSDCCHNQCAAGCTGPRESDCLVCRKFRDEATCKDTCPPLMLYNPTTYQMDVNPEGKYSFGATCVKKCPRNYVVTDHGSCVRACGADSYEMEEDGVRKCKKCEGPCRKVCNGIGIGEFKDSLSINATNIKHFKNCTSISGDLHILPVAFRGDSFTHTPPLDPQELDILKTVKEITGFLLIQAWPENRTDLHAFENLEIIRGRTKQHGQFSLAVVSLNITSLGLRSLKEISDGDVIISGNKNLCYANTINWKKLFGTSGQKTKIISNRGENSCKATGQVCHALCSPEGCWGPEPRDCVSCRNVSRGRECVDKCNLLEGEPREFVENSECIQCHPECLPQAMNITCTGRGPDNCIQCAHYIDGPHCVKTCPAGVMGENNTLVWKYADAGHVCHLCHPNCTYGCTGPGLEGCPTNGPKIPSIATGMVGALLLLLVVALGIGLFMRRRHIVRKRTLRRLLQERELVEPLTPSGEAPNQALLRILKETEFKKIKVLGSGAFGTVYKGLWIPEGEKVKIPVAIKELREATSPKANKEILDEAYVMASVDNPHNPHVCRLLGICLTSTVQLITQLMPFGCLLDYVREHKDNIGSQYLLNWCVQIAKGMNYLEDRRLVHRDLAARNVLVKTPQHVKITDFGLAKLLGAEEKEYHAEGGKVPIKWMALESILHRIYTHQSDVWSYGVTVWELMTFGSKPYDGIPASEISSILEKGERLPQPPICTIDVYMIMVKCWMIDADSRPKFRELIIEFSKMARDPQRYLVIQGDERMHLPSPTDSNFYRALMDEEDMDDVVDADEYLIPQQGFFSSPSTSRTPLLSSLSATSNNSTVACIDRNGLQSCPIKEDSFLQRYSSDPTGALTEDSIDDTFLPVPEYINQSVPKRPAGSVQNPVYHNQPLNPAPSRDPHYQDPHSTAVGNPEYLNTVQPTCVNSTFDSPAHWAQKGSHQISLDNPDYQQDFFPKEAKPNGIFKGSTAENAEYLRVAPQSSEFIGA
# EGFR(D770_N771insSVD) expressing Ba/F3 stable cell line, sequence (P00533 with tags, fused parts or gaps DUP768-770): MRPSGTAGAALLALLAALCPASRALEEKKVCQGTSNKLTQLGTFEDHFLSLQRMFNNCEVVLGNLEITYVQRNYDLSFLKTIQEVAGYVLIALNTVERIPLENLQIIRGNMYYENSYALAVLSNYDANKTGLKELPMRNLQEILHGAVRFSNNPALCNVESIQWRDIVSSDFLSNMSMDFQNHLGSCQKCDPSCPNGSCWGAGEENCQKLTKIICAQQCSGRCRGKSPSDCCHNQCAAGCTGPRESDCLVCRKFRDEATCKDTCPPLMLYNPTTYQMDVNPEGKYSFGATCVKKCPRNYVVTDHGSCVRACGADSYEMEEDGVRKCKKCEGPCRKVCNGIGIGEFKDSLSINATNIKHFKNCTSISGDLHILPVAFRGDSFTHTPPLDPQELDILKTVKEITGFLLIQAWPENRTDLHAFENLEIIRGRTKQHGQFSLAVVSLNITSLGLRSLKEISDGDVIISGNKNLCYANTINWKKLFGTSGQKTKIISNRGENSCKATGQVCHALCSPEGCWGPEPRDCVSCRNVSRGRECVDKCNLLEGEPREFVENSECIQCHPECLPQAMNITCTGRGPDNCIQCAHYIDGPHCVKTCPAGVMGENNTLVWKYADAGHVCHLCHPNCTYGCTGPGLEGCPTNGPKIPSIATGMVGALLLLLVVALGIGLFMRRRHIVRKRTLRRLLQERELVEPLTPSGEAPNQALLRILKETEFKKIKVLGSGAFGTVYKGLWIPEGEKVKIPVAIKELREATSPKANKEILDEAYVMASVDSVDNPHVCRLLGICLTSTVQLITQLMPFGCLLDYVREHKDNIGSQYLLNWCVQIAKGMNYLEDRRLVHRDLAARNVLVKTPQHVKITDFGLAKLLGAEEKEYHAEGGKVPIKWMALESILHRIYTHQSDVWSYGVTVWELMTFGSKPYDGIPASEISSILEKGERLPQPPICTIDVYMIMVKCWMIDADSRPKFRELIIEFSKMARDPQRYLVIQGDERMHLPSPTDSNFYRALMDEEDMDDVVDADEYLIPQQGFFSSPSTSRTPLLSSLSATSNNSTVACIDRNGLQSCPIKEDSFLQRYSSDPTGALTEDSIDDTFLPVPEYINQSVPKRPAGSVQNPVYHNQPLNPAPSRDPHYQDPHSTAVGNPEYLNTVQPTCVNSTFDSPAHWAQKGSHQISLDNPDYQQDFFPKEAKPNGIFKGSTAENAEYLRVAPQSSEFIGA
SMILES,GI50 [1],GI50 [2],IC50 [3],GI50 [4],GI50 [5]
"C=CC(=O)Nc1ccc(F)c(Nc2nc(Nc3cnn(C)c3)ncc2-c2ccc(N(C)C)cc2)c1 [Compound 103, N-(3-((5-(4-(dimethylamino)phenyl)-2-((1-methyl-1H-pyrazol-4-yl)amino)pyrimidin-4-yl)amino)-4-fluorophenyl)acrylamide]",157 nM,281 nM,493 nM,287 nM,461 nM
"C=CC(=O)Nc1cccc(Oc2nc(Nc3cnn(C)c3)ncc2-c2cncc(C(F)(F)F)c2)c1 [Compound 104, N-(3-((2-((1-methyl-1H-pyrazol-4-yl)amino)-5-(5-(trifluoromethyl)pyridin-3-yl)pyrimidin-4-yl)oxy)phenyl)acrylamide]",107 nM,101 nM,1120 nM,104 nM,115 nM
"C=CC(=O)Nc1cccc(Oc2nc(Nc3cnn(C)c3)ncc2-c2ccc(C(F)F)cc2)c1 [Compound 105, N-(3-((5-(4-(difluoromethyl)phenyl)-2-((1-methyl-1H-pyrazol-4-yl)amino)pyrimidin-4-yl)oxy)phenyl)acrylamide]",37 nM,75 nM,171 nM,49 nM,105 nM
"C=CC(=O)Nc1ccc(F)c(Nc2nc(Nc3cnn(C)c3)ncc2-c2ccc(C(F)F)nc2)c1 [Compound 106, N-(3-((5-(6-(difluoromethyl)pyridin-3-yl)-2-((1-methyl-1H-pyrazol-4-yl)amino)pyrimidin-4-yl)amino)-4-fluorophenyl)acrylamide]",16 nM,25 nM,94 nM,35 nM,38 nM
"C=CC(=O)Nc1cccc(Oc2nc(Nc3cnn(C)c3)ncc2-c2ccc(C(F)(F)F)nc2)c1 [Compound 108, N-(3-((2-((1-methyl-1H-pyrazol-4-yl)amino)-5-(6-(trifluoromethyl)pyridin-3-yl)pyrimidin-4-yl)oxy)phenyl)acrylamide]",104 nM,294 nM,341 nM,56 nM,300 nM
"C=CC(=O)Nc1cccc(Oc2nc(Nc3cnn(C)c3)ncc2-c2ccc(F)nc2)c1 [Compound 109, N-(3-((5-(6-fluoropyridin-3-yl)-2-((1-methyl-1H-pyrazol-4-yl)amino)pyrimidin-4-yl)oxy)phenyl)acrylamide]",100 nM,112 nM,613 nM,53 nM,344 nM
"C=CC(=O)Nc1cccc(Nc2nc(Nc3cnn(C)c3)ncc2-c2ccc(C(F)(F)F)cc2)c1 [Compound 111, N-(3-((2-((1-methyl-1H-pyrazol-4-yl)amino)-5-(4-(trifluoromethyl)phenyl)pyrimidin-4-yl)amino)phenyl)acrylamide]",48 nM,103 nM,27 nM,41 nM,138 nM
"C=CC(=O)Nc1ccc(F)c(Nc2nc(Nc3cn(C)nc3Cl)ncc2-c2ccc(C(F)(F)F)cc2)c1 [Compound 112, N-(3-((2-((3-chloro-1-methyl-1H-pyrazol-4-yl)amino)-5-(4-(trifluoromethyl)phenyl)pyrimidin-4-yl)amino)-4-fluorophenyl)acrylamide trifluoroacetate]",93 nM,138 nM,88 nM,80 nM,288 nM
"C=CC(=O)Nc1cccc(Nc2nc(Nc3cnn(C)c3)ncc2-c2cccc(F)c2)c1 [Compound 115, N-(3-((5-(3-fluorophenyl)-2-((1-methyl-1H-pyrazol-4-yl)amino)pyrimidin-4-yl)amino)phenyl)acrylamide trifluoroacetate]",16 nM,30 nM,100 nM,39 nM,25 nM
"C=CC(=O)Nc1ccc(F)c(Nc2nc(Nc3cnn(C)c3)ncc2-c2cncc(N(C)C)c2)c1 [Compound 116, N-(3-((5-(5-(dimethylamino)pyridin-3-yl)-2-((1-methyl-1H-pyrazol-4-yl)amino)pyrimidin-4-yl)amino)-4-fluorophenyl)acrylamide trifluoroacetate]",108 nM,136 nM,108 nM,94 nM,251 nM
"C=CC(=O)Nc1ccc(F)c(Nc2nc(Nc3cnn(C)c3)ncc2-c2ccnc(Cl)c2)c1 [Compound 117, N-(3-((5-(2-chloropyridin-4-yl)-2-((1-methyl-1H-pyrazol-4-yl)amino)pyrimidin-4-yl)amino)-4-fluorophenyl)acrylamide]",86 nM,107 nM,85 nM,57 nM,160 nM
"C=CC(=O)Nc1ccc(F)c(Nc2nc(Nc3cn(C)nc3C)ncc2-c2ccc(C(F)(F)F)cc2)c1 [Compound 135, N-(3-((2-((1,3-dimethyl-1H-pyrazol-4-yl)amino)-5-(4-(trifluoromethyl)phenyl)pyrimidin-4-yl)amino)-4-fluorophenyl)acrylamide trifluoroacetate]",120 nM,235 nM,94 nM,257 nM,413 nM
"C=CC(=O)Nc1ccc(F)c(Nc2nc(Nc3cnn(C4COC4)c3)ncc2-c2ccc(C(F)(F)F)cc2)c1 [Compound 139, N-(4-fluoro-3-((2-((1-(oxetan-3-yl)-1H-pyrazol-4-yl)amino)-5-(4-(trifluoromethyl)phenyl)pyrimidin-4-yl)amino)phenyl)acrylamide]",116 nM,148 nM,> 10000 nM,125 nM,690 nM
"C=CC(=O)Nc1ccc(F)c(Nc2nc(Nc3cnn(C)c3)ncc2-c2ccc(OC(F)F)cc2)c1 [Compound 140, N-(3-((5-(4-(difluoromethoxy)phenyl)-2-((1-methyl-1H-pyrazol-4-yl)amino)pyrimidin-4-yl)amino)-4-fluorophenyl)acrylamide]",32 nM,58 nM,22 nM,34 nM,269 nM
"C=CC(=O)Nc1ccc(F)c(Nc2nc(Nc3cnn(C)c3)ncc2-c2cncc(OC)c2)c1 [Compound 141, N-(4-fluoro-3-((5-(5-methoxypyridin-3-yl)-2-((1-methyl-1H-pyrazol-4-yl)amino)pyrimidin-4-yl)amino)phenyl)acrylamide]",101 nM,49 nM,141 nM,100 nM,201 nM
"C=CC(=O)Nc1cccc(Nc2nc(Nc3cnn(C)c3)ncc2-c2ccc(OC(F)F)cc2)c1 [Compound 142, N-(3-((5-(4-(difluoromethoxy)phenyl)-2-((1-methyl-1H-pyrazol-4-yl)amino)pyrimidin-4-yl)amino)phenyl)acrylamide trifluoroacetate]",16 nM,24 nM,169 nM,34 nM,50 nM
"C=CC(=O)Nc1cccc(Nc2nc(Nc3cnn(C)c3)ncc2-c2cncc(C(F)F)c2)c1 [Compound 144, N-(3-((5-(5-(difluoromethyl)pyridin-3-yl)-2-((1-methyl-1H-pyrazol-4-yl)amino)pyrimidin-4-yl)amino)phenyl)acrylamide trifluoroacetate]",37 nM,101 nM,122 nM,70 nM,38 nM
"C=CC(=O)Nc1ccc(F)c(Nc2nc(Nc3cnn(C)c3)ncc2-c2cncnc2)c1 [Compound 147, N-(4-fluoro-3-((2-((1-methyl-1H-pyrazol-4-yl)amino)-[5,5′-bipyrimidin]-4-yl)amino)phenyl)acrylamide trifluoroacetate]",105 nM,68 nM,466 nM,101 nM,100 nM
"C=CC(=O)Nc1cccc(Oc2nc(Nc3cnn(C)c3)ncc2-c2ccc(C(F)(F)F)cc2)c1 [Compound 151, N-(3-((2-((1-methyl-1H-pyrazol-4-yl)amino)-5-(4-(trifluoromethyl)phenyl)pyrimidin-4-yl)oxy)phenyl)acrylamide]",105 nM,226 nM,375 nM,129 nM,354 nM
"C=CC(=O)Nc1ccc(F)c(Oc2nc(Nc3cnn(C)c3)ncc2-c2ccc(C(F)(F)F)cc2)c1 [Compound 152, N-(4-fluoro-3-((2-((1-methyl-1H-pyrazol-4-yl)amino)-5-(4-(trifluoromethyl)phenyl)pyrimidin-4-yl)oxy)phenyl)acrylamide]",173 nM,407 nM,3500 nM,300 nM,651 nM
"C=CC(=O)Nc1cccc(Oc2nc(Nc3cnn(C)c3)ncc2-c2cncc(F)c2)c1 [Compound 184, N-(3-((5-(5-fluoropyridin-3-yl)-2-((1-methyl-1H-pyrazol-4-yl)amino)pyrimidin-4-yl)oxy)phenyl)acrylamide]",37 nM,222 nM,97 nM,27 nM,60 nM
"C=CC(=O)Nc1cccc(Oc2nc(Nc3cnn(C)c3)ncc2-c2ccc(Cl)nc2)c1 [Compound 185, N-(3-((5-(6-chloropyridin-3-yl)-2-((1-methyl-1H-pyrazol-4-yl)amino)pyrimidin-4-yl)oxy)phenyl)acrylamide]",40 nM,97 nM,522 nM,37 nM,113 nM
